Results as given in ChEMBL document CHEMBL1130833, “Inhibition of electric eel acetylcholinesterase by porphin compounds” (Bioorg Med Chem Lett, 1998).

Molecular target: Acetylcholinesterase (Electrophorus electricus, UniProt O42275)
Assay: Compound was evaluated for inhibitory constant for the electric eel Acetylcholinesterase (AChE)

Chain of Acetylcholinesterase (O42275 whole entry): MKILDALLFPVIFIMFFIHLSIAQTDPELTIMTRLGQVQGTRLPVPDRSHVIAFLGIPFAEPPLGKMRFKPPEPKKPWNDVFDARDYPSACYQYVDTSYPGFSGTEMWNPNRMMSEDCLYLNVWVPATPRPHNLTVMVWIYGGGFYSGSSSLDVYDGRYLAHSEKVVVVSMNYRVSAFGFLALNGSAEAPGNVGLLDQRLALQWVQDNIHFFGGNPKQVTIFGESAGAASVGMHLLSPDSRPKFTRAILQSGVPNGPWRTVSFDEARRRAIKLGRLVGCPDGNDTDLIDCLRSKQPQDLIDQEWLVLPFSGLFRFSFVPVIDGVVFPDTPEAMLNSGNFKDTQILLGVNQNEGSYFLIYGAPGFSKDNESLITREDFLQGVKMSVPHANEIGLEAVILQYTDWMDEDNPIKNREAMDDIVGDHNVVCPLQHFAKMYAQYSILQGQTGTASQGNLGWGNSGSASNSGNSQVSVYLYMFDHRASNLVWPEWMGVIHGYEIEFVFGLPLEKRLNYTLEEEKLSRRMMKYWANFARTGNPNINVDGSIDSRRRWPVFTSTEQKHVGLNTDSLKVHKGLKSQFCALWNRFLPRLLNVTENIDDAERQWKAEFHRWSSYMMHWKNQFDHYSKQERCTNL

SMILES | Ki | Ki (tested as the Zn salt or complex)
Fc1cccc(F)c1-c1c2nc(c(-c3c(F)cccc3F)c3ccc([nH]3)c(-c3c(F)cccc3F)c3ccc([nH]3)c(-c3c(F)cccc3F)c3nc1C=C3)C=C2 | 12 nM | 
Fc1ccc(-c2c3nc(c(-c4ccc(F)cc4F)c4ccc([nH]4)c(-c4ccc(F)cc4F)c4ccc([nH]4)c(-c4ccc(F)cc4F)c4nc2C=C4)C=C3)c(F)c1 | 5 nM | 
C1=Cc2nc1c(-c1ccccc1)c1ccc([nH]1)c(-c1ccccc1)c1nc(c(-c3ccccc3)c3ccc([nH]3)c2-c2ccccc2)C=C1 |  | 5390 nM
